In patent US20140227325A1, “LIGNIN-DERIVED POROUS CARBON COMPOSITION, METHODS OF PREPARATION, AND USE THEREOF” (UT-BATTELLE, LLC, priority 2013, published 2014):

How the values were obtained:
[1] = N2 adsorption-desorption on drug-loaded mesoporous carbons (pore filling); type: physicochemical
Description: In order to further investigate the occupancy of pore space by drug molecules, N2 adsorption-desorption experiments were performed on the drug-loaded mesoporous carbons, and the pore size distribution was calculated by the NLDFT method.

[2] = In-vitro drug release from loaded mesoporous carbon in SGF or SIF (UV-Vis), with kinetic and diffusivity analysis; type: physicochemical
Description: (§1) The loaded mesoporous carbons were dried, the external surface cleaned, and then placed into 130 cm^3 of simulated gastric fluid without pepsin (SGF; 0.2% w/v NaCl, aqueous HCl, pH adjusted to ˜1.5) or into simulated intestinal fluid (SIF) at ambient temperature for 30-50 hours under mild stirring (˜60 rpm) for in-vitro drug release. The drug concentrations were measured by UV-Vis spectroscopy utilizing a calibration curve on absorbance at various concentrations of the drug in SGF or SIF medium.
In order to further investigate the diffusivity of the loaded drugs in the releasing media, Fick's laws of diffusion in spherical and cylindrical coordinates were utilized. Based on the assumption that drug-loaded mesoporous carbons are monolithic systems, the release profile in the spherical system can be mathematically expressed as (J. Siepmann, F. Siepmann, J., Controlled Release, 161 (2012) 351-362.):
versus t will yield the diffusivity values for both types of systems. […] As the centers of micelles are believed to give rise to the mesopores, and because the micelles are approximately spherical in shape, a distorted spherical to cylindrical entity could serve as the closest approximation of the pore geometry. Based on these assumptions, diffusivity values have been calculated from all the release patterns for both spherical and cylindrical systems.
versus t which also yields the diffusivity values of antipyrine from LMC-2 and PMC at three temperatures of 25° C., 35.5° C., and 50° C. Because of the surfactant templating, it was assumed that the mesopore geometries have a spherical to cylindrical shape, which became a basis for calculating the diffusivity values from each of the patterns in both cylindrical and spherical systems.
In order to provide further insight on the temperature dependence of diffusivity, calculations were made using the Eyring equation by assuming antipyrine diffusion from the pores of the carbons is an activation process,
where Eα is the activation energy.

[3] = Drug loading amount by thermogravimetric analysis (TGA); type: physicochemical; conditions: for Loading percent in LMC-2: drug loaded in LMC-2, TGA; for Loading percent in PMC: drug loaded in PMC, TGA
Description: as §1
The drug loading amount in PMC and LMC-2 were measured with the help of thermogravimetric analysis (TGA). Pure mesoporous carbons, pure drugs, and drug-loaded carbons were heated under an inert atmosphere (N2) up to 1000° C., wherein the drug loading amount was calculated by comparing the relative amount of residues.

[4] = cited from earlier work
[5] = from LMC-1, SGF, within around 60% of total drug release

C[C@H](CS)C(=O)N1CCC[C@H]1C(=O)O [Captopril]
pore filling by drug ([1]; PMC): highest pore filling | Diffusivity, Cylindrical ([2]; LMC/SGF): 2 × 10^−22 m^2/s | Diffusivity, Spherical ([2]; LMC/SGF): 9 × 10^−23 m^2/s | Diffusivity, Cylindrical ([2]; PMC/SGF): 2 × 10^−23 m^2/s | Diffusivity, Spherical ([2]; PMC/SGF): 7 × 10^−24 m^2/s | time to complete release ([2]; from LMC, SGF): < 20 h | order of release (Korsmeyer-Peppas equation) [2, 5]: 0.42 | release rate constant (Korsmeyer-Peppas equation) [2, 5]: 3.9 | time to complete release ([2]; from PMC, SGF): ~40 h | Loading percent in LMC-2 [3]: 5% | Loading percent in PMC [3]: 13%

Cc1cc(=O)n(-c2ccccc2)n1C [Antipyrine]
completion of release ([4]; from porous silica): 300 min | Loading percent in LMC-2 [3]: 12% | Loading percent in PMC [3]: 22%

NS(=O)(=O)c1cc(C(=O)O)c(NCc2ccco2)cc1Cl [Furosemide]
release completed ([4]; from mesoporous silica nanoparticles, pH range 5.5 to 7.4): less than 100 minutes | pore filling by drug ([1]; both types of carbons (PMC, LMC-2)): minimum pore filling | Diffusivity, Cylindrical ([2]; LMC/SGF): 6 × 10^−22 m^2/s | Diffusivity, Spherical ([2]; LMC/SGF): 4 × 10^−22 m^2/s | Diffusivity, Cylindrical ([2]; PMC/SGF): 7 × 10^−23 m^2/s | Diffusivity, Spherical ([2]; PMC/SGF): 4 × 10^−23 m^2/s | Diffusivity, Cylindrical ([2]; PMC/SIF): 2 × 10^−23 m^2/s | Diffusivity, Spherical ([2]; PMC/SIF): 1 × 10^−23 m^2/s | initial burst, drug released within 1.5 hours ([2]; SGF): 60% | time to complete release ([2]; from LMC, SGF): less than 10 hours | time to complete release ([2]; from PMC, SGF): 30 to 40 h | time to complete release ([2]; from PMC, SIF (pH ~6.8)): 30 to 40 h | order of magnitude of diffusivity ([2]; release from LMC): 10^−22 m^2/s | order of magnitude of diffusivity ([2]; release from PMC in both SGF and SIF): 10^−23 m^2/s | Loading percent in LMC-2 [3]: 6.6% | Loading percent in PMC [3]: 6.7%
